Source: US12472226B2, “Cell-permeable peptide” (priority 2019, dated 2025)
Non-standard residues stand in square brackets, D forms with d. Primed or numbered codes have the meaning given here. No end group written: not given here. *: point of attachment. FITC = O=C1OC2(c3ccc(O)cc3Oc3cc(O)ccc32)c2ccc(NC(=S)*)cc21; PEG4′ = not defined here; PEG5′ = not defined here; Ahx = NCCCCCC(=O)O

Key:
HT-1080 cells tumor = test: Delivery test on anticancer agent in tumor-bearing mice; type: in vivo, BALB/c nude mouse
Protocol: HT-1080 cells (1×10^7 cells/200 μL) were subcutaneously implanted into the back of 5 week-old BALB/c nude mouse (CHARLES RIVER LABORATORIES JAPAN, INC.). A tumor after the implantation was confirmed to reach 30 to 60 mm^3, and then they were subjected to the following tests.
Example 2 was dissolved in the sterile water and adjusted to be 200 μg/200 μL by the addition of 2-time concentrated α-MEM (not containing glutamine or an antibiotic). It was intraperitoneally administered to tumor-bearing mice at 10 mg/kg every 3 days. In the control administration group, 200 μL of 1-time concentrated α-MEM was intraperitoneally administered to tumor-bearing mice every 3 days. The mice were weighed on DRETEC weighing scale (DRETEC CO., Ltd., Japan) and the tumor size (estimation volume (shortest diameter×longer diameter×height×pi/6 mm^3)) was measured with a vernier caliper (maximum: 150 mm, minimum: 0.05 mm) (MITUTOYO, Japan) every 3 days.
Example 3 and Comparative Example 4 (Dox) were treated to be at 5 or 1.2 mg/kg, respectively in the same manner as that of Example 2, and administered to the tumor-bearing mice. The tumor size was measured by the same procedure as above.
FIG. 7 is a graph illustrating transitions of tumor size in the control (N=2), Comparative Example 4(N=2) and Example 3 administration group (N=2). The vertical axis represents the average value of tumor size±standard deviation (SD) and the horizontal axis represents the days after administration. […] The tumor size day 24 grew to about 2,000 mm^3 in the control and Comparative Example 4 administration group. […] That is, the tumors largely shrank due to not only anticancer effect of the peptide itself but also the effect of the anticancer agent. The peptides of the present invention specifically act on the target cells compared with the single administration of the anticancer agent and have high toxicity against the cancer cells.

HT-1080 cells [1] = test: Test of inducing cell-death in vitro (Calcein-AM/PI dead cell rate); type: cell-based, human; conditions: 9th day
Text: Human fibrosarcoma-derived HT-1080 cells (HT-1080 cells, JCRB cell bank) were used as cancer cells in the test for monitoring changes in mitochondrial membrane potential. HT-1080 cells, human osteosarcoma cell line Hos cells (Hos cells, JCRB cell bank), human histiocytic lymphoma/macrophage U937 cells (U937 cells, JCRB cell bank), human myeloid leukemia HL-60 cells (HL-60 cells, JCRB cell bank), acute monocytic leukemia THP-1 cells (THP-1 cells, JCRB cell bank), human alveolar basal epithelial adenocarcinoma cell A549 cells (A549 cells, Cell Resource Center for Biomedical Research, Institute of Development, Aging and Cancer, Tohoku University), human pancreatic carcinoma cells (MIA Paca 2 cells, Cell Resource Center for Biomedical Research, Institute of Development, Aging and Cancer, Tohoku University) and well differentiated human liver carcinoma-derived cell line HuH7 cells (HuH7 cells, Cell Resource Center for Biomedical Research, Institute of Development, Aging and Cancer, Tohoku University) were used as cancer cells in an in vitro cell-death induction test of cancer cells and a nuclear transport test of Example 2. Normal human gingival fibroblast cells Gin-1 (Gin-1 cells, DS Pharma Biomedical) were used as a control. The above-described cells were each inoculated into a 96-well culture plate (Falcon) at 5,000 cells/[…] and subjected to the following tests.
The peptide of SEQ ID NO: 1 labeled with FITC (Example 2) was used for the test of inducing cell-death in vitro in cancer cells. It was prepared the test example to which 100 μL of Example 2 and further 10% FBS were added and cultured for 9 days under conditions of 200 μL of serum-supplemented medium (Alpha modification of Eagle's MEM (α-MEM) (Thermo Fisher Scientific)+10% FBS). Furthermore, it was also produced the test example that was cultured for 21 days with the whole amount of Example 2-supplemented medium replaced every 7 days. As a control, the cells were cultured in a serum-supplemented medium (α-MEM+10% FBS) without addition and were used. A supernatant was removed after the completion of the culture. The cells were washed once with PBS and stained in PBS to which a fluorescent dye for living cell staining Calcein-AM (DOJINDO LABORATORIES) (final concentration: 0.1 μg/mL) and a fluorescent dye for dead cell staining Propidium Iodide (PI) (DOJINDO LABORATORIES) (final concentration: 0.3 μg/mL) were added, at 37° C. in a 5% CO2 cell incubator for 30 minutes. The living cells and dead cells were separately stained with Calcein-AM and PI, respectively and imaged with the confocal laser scanning microscope LSM800. Next, the dead cell rate relative to the number of total cells was analyzed using ImageJ.
The results are represented by the average value of the dead cell rate (the number red cells stained with IP/the number of total cells×100(%))±standard deviation (SD). In FIG. 2A, the vertical axis represents the rate of cell death when each cell was cultured with Example 2 (50 μg/mL) for 9 days and the horizontal axis represents various types of cells. The increase in the dead cell rate of the Gin-1 cells was not observed.
The concentrations of Examples 2 and 4 to 6 were adjusted to 12.5, 25, 50 and 100 μg/mL, respectively and then administrated to the HT-1080 cells for 9 days tested by the same method as in Test Example 2A. The cell staining and subsequent analyses of the dead cell rate relative to the number of total cells were performed in the same manner as Test Example 2A.

Gin-1 cells = test: Test of monitoring changes in mitochondrial membrane potential (JC-1 apoptosis rate), normal cells; type: cell-based, human; conditions: 50 μg/mL
Protocol: (§1) Human fibrosarcoma-derived HT-1080 cells (HT-1080 cells, JCRB cell bank) were used as cancer cells in the test for monitoring changes in mitochondrial membrane potential. […]
(§2) The synthetic peptide of Example 1 or Comparative Examples 1 to 3 was individually added to the HT-1080 cells, and the cells were cultured in a serum-supplemented medium (α-MEM+10% FBS). […] Further, the cells were washed once with PBS followed by the addition of 100 μL of PBS, scanned with a confocal laser scanning microscope LSM800 (Zeiss) and then analyzed with ImageJ. […]

HT-1080 cells [2] = test: Test of monitoring changes in mitochondrial membrane potential (JC-1 apoptosis rate); type: cell-based, human; conditions: 7 days, Example 1 at 25, 50 and 100 μg/mL, Comparative Examples at 50 and 100 μg/mL
Protocol: as §1, §2

For `COc1cccc2c1C(=O)c1c(O)c3c(c(O)c1C2=O)C[C@@](O)(C(=O)CO)C[C@@H]3O[C@H]1C[C@H](N)[C@H](O)[C@H](C)O1` [Comparative Example 4, Doxorubicin, reference compound], the tumor size (HT-1080 cells tumor; 1.2 mg/kg, day 24, N=2) was “about 2,000 mm^3”.

With “Example 3 ({doxorubicin-PEG5′-DBCO‑azide-PEG4′}-KDNRGNLLQCVCTGNGRGEWKC; cysteine pairing not given here)” the “suppression of tumor proliferation compared with the control and Comparative Example 4 administration group” value (HT-1080 cells tumor; 5 mg/kg, between days 18 and 24, N=2) was “significant difference at the level of 1%” and the “suppression effect on tumor” value (HT-1080 cells tumor; 5 mg/kg, to the day 24) was “suppression effect was confirmed”.

With “Example 5: peptide of SEQ ID NO: 2 labeled with FITC via an Ahx linker at the N-terminus ({FITC}-[Ahx]KDNRGNLLQCICTGNGRGEWKC; cysteine pairing not given here)” the dead cell rate (HT-1080 cells [1]; 50 or 100 μg/mL) was at least 50%.

In the case of “Example 6: peptide of SEQ ID NO: 6 labeled with FITC via an Ahx linker at the N-terminus ({FITC}-[Ahx]KHGLYNLKQCKMSLNGQRGECWC; cysteine pairing not given here)”, the dead cell rate (HT-1080 cells [1]; 12.5 μg/mL substantially same as 100 μg/mL) is reported as “about 35%”.

With “KDNRGNLLQCVCTGNGRGEWKC (This is derived from a part of CD ligand.; BINDING (3)..(6); BINDING (13)..(17)) [Example 1]” the “increase in apoptosis rate” value (Gin-1 cells) was “not observed” and the “increase in apoptosis rate (number of green cell dyed with JC1/number of total cells)” value (HT-1080 cells [2]) was “increase in apoptosis rate of the HT-1080 cells was confirmed”.
